Assay results as given in US20250059164A1, “IRAK DEGRADERS AND USES THEREOF” (Kymera Therapeutics, Inc., priority 2023, published 2025).

Tests used:
IRAK4 = target: T1, IRAK4 (Homo sapiens, UniProt Q9NWZ3); test: IRAK4 MSD degradation in OCI-LY10; assay type: cell-based; details: OCI-LY10 cells, 24 hrs, Meso Scale Discovery
T1 construct: endogenous in cells; host or cells: OCI-LY10
T1 sequence (Q9NWZ3 1-460): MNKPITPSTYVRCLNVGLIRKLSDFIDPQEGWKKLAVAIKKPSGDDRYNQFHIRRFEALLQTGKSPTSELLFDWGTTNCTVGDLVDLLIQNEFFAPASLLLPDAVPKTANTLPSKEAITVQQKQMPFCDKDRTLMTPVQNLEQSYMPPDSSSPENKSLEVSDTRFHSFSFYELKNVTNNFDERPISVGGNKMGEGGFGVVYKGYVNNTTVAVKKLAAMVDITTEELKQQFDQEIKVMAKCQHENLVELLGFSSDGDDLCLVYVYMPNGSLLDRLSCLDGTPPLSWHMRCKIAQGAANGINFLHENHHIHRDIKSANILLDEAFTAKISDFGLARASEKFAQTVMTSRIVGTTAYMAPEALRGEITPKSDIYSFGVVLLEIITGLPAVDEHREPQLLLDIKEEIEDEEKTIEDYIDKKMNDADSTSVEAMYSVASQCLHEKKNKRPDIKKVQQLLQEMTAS
Method in brief: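 OCI-LY10 cells treated 4 to 24 hours at 37° C. with 8-dose 1:3 series, top 1 to 10 μM. IRAK4 in lysates quantified by MSD sandwich immunoassay (mouse capture, rabbit detection, SULFO-TAG anti-rabbit). DC50 from three-parameter logistic fit.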

[1] = Rodent pharmacokinetics (rat PK); assay type: in vivo; details: po, dosed intravenously or orally by gavage, plasma, read-out: F % (bioavailability)
Method in brief: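 Rats were dosed IV or by oral gavage, with jugular blood taken predose and at 5 min (IV only), 15, 30 min and 1, 2, 4, 8, 24 h. Plasma was separated by centrifugation at 4 °C. Oral bioavailability (F %) is coded A (≥5%) or B (≤5%).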

Structure (SMILES)	DC50 (IRAK4)	bioavailability [1]
Cn1c(=O)n(C2CCC(=O)NC2=O)c2cccc([C@@H]3CCN(C[C@H]4CC[C@H](c5nc6cc(C(C)(C)O)c(NC(=O)c7cncc(C(F)(F)F)n7)cc6o5)CC4)C[C@H]3F)c21 (some centres unmarked) [I-288]	< 0.01 µM	≥ 5%
Cn1c(=O)n(C2CCC(=O)NC2=O)c2cccc(N3CCC4(CCN(C[C@H]5CC[C@H](n6cc7cc(NC(=O)c8cncc(Cl)c8)c(C(C)(C)O)cc7n6)CC5)CC4(F)F)CC3)c21 (some centres unmarked) [I-387]	< 0.01 µM	≤ 5%
Cn1c(=O)n(C2CCC(=O)NC2=O)c2cccc([C@@H]3CCN(C[C@H]4CC[C@H](n5cc6cc(NC(=O)c7cncc(C(F)(F)F)n7)c(F)cc6n5)CC4)C[C@H]3F)c21 (some centres unmarked) [I-296]	< 0.01 µM	≤ 5%
CN(C[C@H]1CC[C@H](n2cc(NC(=O)c3cnn4cccnc34)c(C(F)F)n2)CC1)[C@@H]1CCN(c2cccc3c2n(C)c(=O)n3C2CCC(=O)NC2=O)C[C@@H]1F (single isomer, unassigned) [I-281]	< 0.01 µM	≥ 5%
Cn1c(=O)n(C2CCC(=O)NC2=O)c2cccc(N3CC4(CCN(C[C@H]5CC[C@H](c6nc7cc(C(C)(C)O)c(NC(=O)c8cncc(C#N)c8)cc7s6)CC5)CC4(F)F)C3)c21 (some centres unmarked) [I-367]	0.01 to 0.1 µM	≥ 5%
Cn1c(=O)n(C2CCC(=O)NC2=O)c2cccc([C@@H]3CCN(C[C@H]4CC[C@H](n5cc6cc(NC(=O)c7cncc(C#N)c7)c(C(C)(C)O)cc6n5)CC4)CC3(F)F)c21 (single isomer, unassigned) [I-389]	< 0.01 µM	≤ 5%
COc1ccc2c(c1N1CC3(CCN(C[C@H]4CC[C@H](n5cc6cc(NC(=O)c7cncc(C#N)c7)c(C(C)(C)O)cc6n5)CC4)CC3(F)F)C1)n(C)c(=O)n2C1CCC(=O)NC1=O (mixture of isomers) [I-227, 5-Cyano-N-[2-[4-[[2-[1-(2,6-dioxo-3-piperidyl)-5-methoxy-3-methyl-2-oxo-benzimidazol-4-yl]-5,5-difluoro-2,7-diazaspiro [3.5]nonan-7-yl]methyl]cyclohexyl]-6-(1-hydroxy-1-methyl-ethyl)indazol-5-yl]pyridine-3-carboxamide]	< 0.01 µM	≤ 5%
Cn1c(=O)n(C2CCC(=O)NC2=O)c2cccc([C@@H]3CCN(C[C@H]4CC[C@H](n5cc6cc(NC(=O)c7cccc(C#N)c7)ccc6n5)CC4)C[C@H]3F)c21 (some centres unmarked) [I-249]	< 0.01 µM	≤ 5%
Cn1c(=O)n(C2CCC(=O)NC2=O)c2cccc([C@@H]3CCN(C[C@H]4CC[C@H](n5cc6cc(NC(=O)c7cncc(C(C)(C)C)n7)ccc6n5)CC4)C[C@H]3F)c21 (some centres unmarked) [I-324]	< 0.01 µM	≤ 5%
COc1cn2nc([C@H]3CC[C@H](CN(C)[C@@H]4CCN(c5cccc6c5n(C)c(=O)n6C5CCC(=O)NC5=O)C[C@@H]4F)CC3)cc2cc1NC(=O)c1cncc(C(F)(F)F)n1 (single isomer, unassigned) [I-302]	< 0.01 µM	≤ 5%
Cn1c(=O)n(C2CCC(=O)NC2=O)c2cccc(N3CC(OC[C@H]4CC[C@H](n5cc(NC(=O)c6cnn7ccc(N8C[C@H]9C[C@@H]8CO9)nc67)c(C(F)F)n5)CC4)C3)c21 (some centres unmarked) [I-256]	> 0.2 µM	≤ 5%
COc1cc2nn([C@H]3CC[C@H](CN4CCC5(CCN(c6cccc7c6n(C)c(=O)n7C6CCC(=O)NC6=O)CC5)C(F)(F)C4)CC3)cc2cc1C(=O)Nc1cncc(C#N)c1 (some centres unmarked) [I-228]	< 0.01 µM	≤ 5%
Cn1c(=O)n(C2CCC(=O)NC2=O)c2cccc([C@@H]3CCN(C[C@H]4CC[C@H](n5cc6cc(NC(=O)c7cncc(C(F)(F)F)n7)ncc6n5)CC4)CC3(F)F)c21 (single isomer, unassigned) [I-206]	0.01 to 0.1 µM	≥ 5%
COc1cc2nn([C@H]3CC[C@H](CN4CC[C@H](c5cccc6c(C7CCC(=O)NC7=O)nn(C)c56)[C@@H](F)C4)CC3)cc2cc1NC(=O)c1cncc(C#N)c1 (single isomer, unassigned) [I-264]	< 0.01 µM	≤ 5%
Cn1c(=O)n(C2CCC(=O)NC2=O)c2ccc(F)c([C@@H]3CCN(C[C@H]4CC[C@H](n5cc6cc(NC(=O)c7cncc(C(F)(F)F)n7)ccc6n5)CC4)C[C@H]3F)c21 (single isomer, unassigned) [I-348]	< 0.01 µM	≥ 5%
COc1cc2nn([C@H]3CC[C@H](CN4CCC5(CCN(c6cccc7c6n(C)c(=O)n7C6CCC(=O)NC6=O)CC5)C(F)(F)C4)CC3)cc2cc1NC(=O)c1cncc(F)c1 (some centres unmarked) [I-127]	< 0.01 µM	≤ 5%
Cn1c(=O)n(C2CCC(=O)NC2=O)c2cccc([C@@H]3CCN(C[C@H]4CC[C@H](n5cc6cc(NC(=O)c7cccc(C(F)(F)F)c7)ncc6n5)CC4)C[C@H]3F)c21 (some centres unmarked) [I-244]	< 0.01 µM	≤ 5%

Structure (SMILES)	DC50 (IRAK4)	bioavailability [1]
Cn1c(=O)n(C2CCC(=O)NC2=O)c2cccc([C@@H]3CCN(C[C@H]4CC[C@H](c5cn6cc(NC(=O)c7cccc(C(F)(F)F)n7)c(C(C)(C)O)cc6n5)CC4)C[C@H]3F)c21 (some centres unmarked) [I-268]	< 0.01 µM	≤ 5%
Cn1c(=O)n(C2CCC(=O)NC2=O)c2cccc([C@@H]3CCN(C[C@H]4CC[C@H](n5cc6cc(NC(=O)c7cccc(C(F)(F)F)n7)c(N7CCN(C8CC8)CC7)cc6n5)CC4)C[C@H]3F)c21 (some centres unmarked) [I-107]	0.01 to 0.1 µM	≤ 5%
CN(C[C@H]1CC[C@H](c2cn3cc(NC(=O)c4cncc(C(F)(F)F)n4)ccc3n2)CC1)[C@@H]1CCN(c2cccc3c2n(C)c(=O)n3C2CCC(=O)NC2=O)C[C@H]1F (single isomer, unassigned) [I-293]	0.01 to 0.1 µM	≤ 5%
Cn1c(=O)n(C2CCC(=O)NC2=O)c2cccc([C@@H]3CCN(C[C@H]4CC[C@H](c5nc6cc(C(C)(C)O)c(NC(=O)c7ccnc(C(F)(F)F)n7)cc6s5)CC4)C[C@H]3F)c21 (some centres unmarked) [I-170]	< 0.01 µM	≥ 5%
Cn1c(=O)n(C2CCC(=O)NC2=O)c2cccc([C@@H]3CCN(C[C@H]4CC[C@H](n5cc6cc(NC(=O)c7ccnc(C(F)(F)F)n7)ccc6n5)CC4)C[C@H]3F)c21 (some centres unmarked) [I-190]	> 0.2 µM	≤ 5%
COc1cc2nn([C@H]3CC[C@H](CN4CCC5(CCN(c6cccc7c6n(C)c(=O)n7C6CCC(=O)NC6=O)CC5)C(F)(F)C4)CC3)cc2cc1NC(=O)c1cncc(C#N)c1 (some centres unmarked) [I-259]	< 0.01 µM	≤ 5%
Cn1c(=O)n(C2CCC(=O)NC2=O)c2cccc([C@@H]3CCN(C[C@H]4CC[C@H](c5nc6cc(C(C)(C)O)c(NC(=O)c7cncc(C(F)(F)F)n7)cc6s5)CC4)C[C@H]3F)c21 (some centres unmarked) [I-173]	< 0.01 µM	≤ 5%
Cn1c(=O)n(C2CCC(=O)NC2=O)c2cccc(N3CC(COC[C@H]4CC[C@H](n5cc(NC(=O)c6cnn7ccc(N8C[C@H]9C[C@@H]8CO9)nc67)c(C(F)F)n5)CC4)C3)c21 (some centres unmarked) [I-111]	> 0.2 µM	≤ 5%
Cc1nc(C(=O)Nc2ccc3nn([C@H]4CC[C@H](CN5CC[C@@H](c6cccc7c6n(C)c(=O)n7C6CCC(=O)NC6=O)[C@H](F)C5)CC4)cc3c2)co1 (some centres unmarked) [I-148]	< 0.01 µM	≤ 5%
Cn1c(=O)n(C2CCC(=O)NC2=O)c2cccc(N3CCC4(CCN(C[C@H]5CC[C@H](c6nc7cc(C(C)(C)O)c(NC(=O)c8cccc(C(F)(F)F)n8)cc7s6)CC5)CC4(F)F)CC3)c21 (some centres unmarked) [I-407]	0.01 to 0.1 µM	≤ 5%
COc1cc2nn([C@H]3CC[C@H](CN4CC[C@@H](c5cccc6c5n(C)c(=O)n6C5CCC(=O)NC5=O)[C@H](F)C4)CC3)cc2cc1NC(=O)c1cncc(C(F)F)c1 (some centres unmarked) [I-271]	< 0.01 µM	≤ 5%
COc1cc2nn([C@H]3CC[C@H](CN4CC[C@H](c5cccc6c5c(C)nn6C5CCC(=O)NC5=O)[C@@H](F)C4)CC3)cc2cc1NC(=O)c1cncc(C#N)c1 (single isomer, unassigned) [I-266]	< 0.01 µM	≤ 5%
CN(C[C@H]1CC[C@H](c2cn3cc(NC(=O)c4cncc(C(F)(F)F)n4)ccc3n2)CC1)[C@H]1CCN(c2cccc3c2n(C)c(=O)n3C2CCC(=O)NC2=O)C[C@@H]1F (single isomer, unassigned) [I-294]	< 0.01 µM	≤ 5%
Cn1c(=O)n(C2CCC(=O)NC2=O)c2cccc([C@@H]3CCN(C[C@H]4CC[C@H](c5cn6cc(NC(=O)c7cccc(C(F)(F)F)c7)c(C(C)(C)O)cc6n5)CC4)C[C@H]3F)c21 (some centres unmarked) [I-276]	< 0.01 µM	≤ 5%
Cn1c(=O)n(C2CCC(=O)NC2=O)c2cccc([C@@H]3CCN(C[C@H]4CC[C@H](c5nc6cc(C(C)(C)O)c(NC(=O)c7cncc(C#N)c7)cc6o5)CC4)C[C@H]3F)c21 (some centres unmarked) [I-405]	0.01 to 0.1 µM	≤ 5%
Cn1c(=O)n(C2CCC(=O)NC2=O)c2cccc([C@@H]3CCN(C[C@H]4CC[C@H](n5cc6cc(NC(=O)c7cccc(C(F)(F)F)c7)ccc6n5)CC4)C[C@H]3F)c21 (some centres unmarked) [I-245]	< 0.01 µM	≤ 5%
Cc1nn(C2CCC(=O)NC2=O)c2cccc([C@H]3CCN(C[C@H]4CC[C@H](n5cc6cc(NC(=O)c7cncc(C(F)(F)F)n7)ccc6n5)CC4)CC3(F)F)c12 (single isomer, unassigned) [I-372]	0.01 to 0.1 µM	≥ 5%
